Biological target: T1, topoisomerase I (Homo sapiens, UniProt P11387)
T1 construct: gene TOP1
T1 sequence (P11387 2-765): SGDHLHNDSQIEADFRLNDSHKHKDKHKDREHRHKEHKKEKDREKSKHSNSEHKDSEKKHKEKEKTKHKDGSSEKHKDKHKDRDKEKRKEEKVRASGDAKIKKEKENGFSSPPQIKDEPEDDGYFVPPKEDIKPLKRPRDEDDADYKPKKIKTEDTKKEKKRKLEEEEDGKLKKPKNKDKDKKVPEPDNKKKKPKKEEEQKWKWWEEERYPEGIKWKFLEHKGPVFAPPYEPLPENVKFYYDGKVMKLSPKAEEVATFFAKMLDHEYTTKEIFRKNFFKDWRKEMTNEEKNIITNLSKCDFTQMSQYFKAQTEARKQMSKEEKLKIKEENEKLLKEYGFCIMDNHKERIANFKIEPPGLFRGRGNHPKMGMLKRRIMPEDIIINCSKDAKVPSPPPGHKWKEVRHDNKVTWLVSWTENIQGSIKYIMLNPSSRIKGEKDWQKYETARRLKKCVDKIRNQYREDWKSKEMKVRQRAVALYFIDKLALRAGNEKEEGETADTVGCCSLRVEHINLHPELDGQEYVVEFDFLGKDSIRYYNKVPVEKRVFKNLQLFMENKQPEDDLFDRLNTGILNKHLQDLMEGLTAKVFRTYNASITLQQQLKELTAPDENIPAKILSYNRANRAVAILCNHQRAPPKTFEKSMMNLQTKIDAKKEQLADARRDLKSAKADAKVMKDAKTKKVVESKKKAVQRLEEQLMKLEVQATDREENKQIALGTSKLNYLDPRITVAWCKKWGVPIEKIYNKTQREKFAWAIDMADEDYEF
Experiment: plasmid DNA relaxation assay (supercoiled pBR322, agarose gel) with commercial human topoisomerase I
Assay type: biochemical

- EC50: 3.6 µM
SMILES: O=c1[nH]c(-c2ccc(O)cc2)nc2c1Cc1c(ccc3ccccc13)O2 [CPO, chromenopyrimidinone]
